In patent publication US11744273B2, “Sweetness enhancing volatile compositions and methods of increasing perceived sweetness of a comestible” (University of Florida Research Foundation, Inc., priority 2016, dated 2023):

What was measured:
Format in all cases: in vivo, human
sweetness [1] = assay: Blueberry sensory panels; PLS analysis, sweetness (Table 7); conditions: multivariate regression analysis
Description: Sensory analysis was conducted similar to described above for tomatoes and strawberries in Examples 1 and 3. […] Panelists were trained with the scaling methods and were encouraged to return for the remainder of the study. Panelists rated overall liking, texture liking, sweetness, sourness, and flavor intensity using hedonic general Labeled Magnitude Scales (gLMS) (−100 to +100; −100=greatest disliking of any kind, +100=greatest liking of any kind) and intensity gLMS (0 to +100; 0=no sensation, 100=most intense sensation of any kind), which allow for improved comparison between panelists and between years (see Bartoshuk, L. M., et al., 2004 and Bartoshuk, L. M., et al., 2005). Panelists were also asked to rate the intensity of taste and flavor sensations of a hypothetical ideal blueberry on this scale. Each panelist received two to four berries of five to six genotypes in a single panel in a Williams design, which was generated by Compusense 5.6 (Compusense Inc., Guelph, Ontario, Canada). They were asked to eat the blueberries of each genotype at once, and to take a bite of cracker and sip of water in between samples. Ratings were recorded using Compusense software.
(§1) Soluble solids content (SSC), titratable acidity (TA), and volatiles were quantified as described above for tomato and strawberries. The volatiles were collected for two hours via dynamic headspace with HaySep Q 80-100 porous polymer adsorbent (Valco Instruments Company Inc., Houston, Tex.) and eluted with methylene chloride and nonyl acetate as an elution standard. Elutions were run on an Agilent 7890A Gas Chromatograph Flame Ionization Detector (GC-FID) DB-5 column (30 m length×250 mm diameter×1 mm film) for quantification and on an Agilent 7890A Gas Chromatograph coupled to an Agilent 5977A Mass Selective Detector (GC/MSD) for qualification (Agilent, Santa Clara, Calif.). Integrated peak area of each signal was normalized for elution, fitted to relative pure chemical response, corrected for sample mass, and expressed as nanograms per gram fresh weight per hour (ng gFW-1 h-1). Response fitting was calculated using the response factor of pure chemical standards (Sigma-Aldrich, St. Louis, Mo.) run on the same instrument.
(§2) Pair-wise correlations and significance between sensory measurements and primary bio-chemical components were calculated, with panelist as a random effect. Least Square Means (LSMeans) of the sensory data for each sample were obtained to account of the random effect of panelist. A partial least squares (PLS) analysis was constructed in JMP1 Pro 10 (SAS Institute Inc., Cary, N.C.) to reveal effectors of sensory ratings (see, e.g., Togari N., et al., 1995; Hough, G., et al., 1996; deKermadec, F., et al., 1997; Toscas, P. J., et al., 1999; and Tenenhaus, M., et al., 2005). The response variables (Y) considered corresponded to LSMeans of overall liking, sweetness, sourness, and blueberry flavor intensity. Glucose, fructose, sucrose, TA, pH, and 52 volatile compounds were considered as explanatory variables (X). The inclusion of texture liking was evaluated independently given that no explanatory physical measure was made for sample texture. […] The model was created without texture for analysis.
• Top six and bottom six biochemical measures explaining sensory responses as determined by partial least squares (PLS) analysis. […]

sweetness [2] = assay: Blueberry sensory panels; multiple regression of volatiles against sweetness independent of fructose, glucose and/or sucrose (Table 8); conditions: for t Ratio (Fructose): contribution to sweetness independent of fructose; for t Ratio (Glucose): contribution to sweetness independent of glucose; for t Ratio (Sucrose): contribution to sweetness independent of sucrose
Description: Panelists were trained with the scaling methods and were encouraged to return for the remainder of the study. […] Panelists were also asked to rate the intensity of taste and flavor sensations of a hypothetical ideal blueberry on this scale. Each panelist received two to four berries of five to six genotypes in a single panel in a Williams design, which was generated by Compusense 5.6 (Compusense Inc., Guelph, Ontario, Canada). They were asked to eat the blueberries of each genotype at once, and to take a bite of cracker and sip of water in between samples. Ratings were recorded using Compusense software.
as §1, with “Elutions were run on an Agilent 7890A Gas Chromatograph Flame Ionization Detector (GC-FID) DB-5 column (30 m length×250 mm diameter×1 mm film) for quantification and on an Agilent 7890A Gas Chromatograph coupled to an Agilent 5977A Mass Selective Detector (GC/MSD) for qualification (Agilent, Santa Clara, Calif.).” left out
as §2, with “A partial least squares (PLS) analysis was constructed in JMP1 Pro 10 (SAS Institute Inc., Cary, N.C.) to reveal effectors of sensory ratings (see, e.g., Togari N., et al., 1995; Hough, G., et al., 1996; deKermadec, F., et al., 1997; Toscas, P. J., et al., 1999; and Tenenhaus, M., et al., 2005).” left out

[3] = test system: strawberry flavor intensity; assay: Strawberry consumer panel; correlation of volatiles with strawberry flavor intensity
Description: Quantification of volatiles in an elution was performed on an Agilent 7890A Series gas chromatograph (GC) (carrier gas; He at 3.99 mL min^−1; splitless injector, temperature 220° C., injection volume 2 μl) equipped with a DB-5 column ((5%-Phenyl)-methylpolysiloxane, 30 m length×250 μm i.d.×1 μm film thickness; Agilent Technologies, Santa Clara, Calif., USA). Oven temperatures programmed from 40° C. (0.5 min hold) at 5° C. min^−1 to 250° C. (4 min hold). Signals captured with a flame ionization detector (FID) at 280° C. Peaks from FID signal were integrated manually with Chemstation B.04.01 software (Agilent Technologies, Santa Clara, Calif.). Volatile emission (ng gFW^−1 h^−1) calculated based on individual peak area relative to sample elution standard peak area. GC-Mass Spectrometry (MS) analysis of elution on an Agilent 6890N GC in tandem with an Agilent 5975 MS (Agilent Technologies, Santa Clara, Calif., USA) and retention time comparison with authentic standards (Sigma Aldrich, St Louis, Mo., USA) for volatile identification (Schmelz, 2001).
All consumer panels were approved by the University of Florida Institutional Review Board. Over the course of two annual seasons 166 strawberry consumers (58 male, 108 female) were recruited to evaluate strawberry cultivars. Ages of panelist ranged from 18 to 71, with a median age of 24. Panelists self-classified themselves as 98 White or Caucasian, 11 Black or African-American, 1 Native American, Alaska Native or Aleutian, 41 Asian/Pacific Islander, and 15 Other. An average of 106 (range of 98-113) panelists evaluated between three and five cultivars per session (Tieman, 2012). Fresh, fully-ripe strawberry fruit was removed from overnight 4° C. dark storage and allowed to warm to room temperature prior to sensory analysis. Each panelist was given one to two whole strawberries for evaluation, depending on cultivar availability. Panelist took a bite of each sample, chewed, and swallowed it. Ratings for overall liking and liking for texture were scaled on hedonic general labeled magnitude scale (gLMS) in the context of all pleasure/displeasure experiences. Perceived intensity of sweetness, sourness, and strawberry flavor were scaled in context of all sensory experiences using sensory gLMS (Bartoshuk, 2003; Bartoshuk, 2005; Tieman, 2012). Scales were employed to mediate valid comparisons across subjects and sessions.
Means and standard errors for consumer, physical, and metabolite measurements were determined from all replicates using JMP (Version 8. SAS Institute Inc., Cary, N.C., 1989-2008). Bivariate analysis among individual measurements of samples allowed for linear fit, which includes summary of fit, analysis of variance, t-test, and correlation analysis for density ellipse. […]

perceived sweetness [4] = assay: Tomato taste panel; initial multiple regression of volatiles against perceived sweetness (Table 3); conditions: tomato volatiles; multiple regression, contribution to sweetness independent of the measures of sugar
Description: (§3) Fully ripe fruit were harvested, and used for taste panels. A random subset of fruit was used for biochemical analysis. Three biological replicates, each consisting of 2-20 fruit (depending on fruit size), were assayed for each variety. […] Panelists were between the ages of 18 and 78 with a median age of 22. […] An average of 85 (range of 66-95) of these panelists evaluated between 4-6 varieties in a session. All panelists went through a training session to familiarize them with the scaling and procedures. Tomatoes were sliced into wedges (or in halves for grape/cherry types) and each panelist was given two pieces for evaluation. Panelists took a bite of each sample, chewed and swallowed it, and rated overall liking and liking for texture. They then rated the perceived intensities of sweetness, sourness, saltiness, umami sensation, bitterness and overall tomato flavor. They were free to take as many bites as necessary to complete the assessments. They were instructed to take a bite of an unsalted cracker and a sip of water between samples. Samples were presented to the panelists in a randomized order. Hedonic ratings used the hedonic gLMS. This scale assesses the liking for tomatoes in the context of all pleasure/displeasure experiences: 0=neutral, −100=strongest disliking of any kind experienced, and +100=strongest liking of any kind experienced. Sensory intensity ratings used the gLMS (7,8,19). This scale assesses taste and flavor sensations in the context of all sensory experience (7): 0=no sensation, 100=strongest sensation of any kind experienced. Both scales were devised to provide valid comparisons across subjects.
(§4) The 68 chemical compounds measured in this experiment were initially divided into six groups based upon biochemical properties: sugars, branched chain amino acids, lipids, carotenoids, phenolics, and acids. A small number of compounds for which biosynthetic pathways are not established were assigned to one of the six classes based upon their correlations with other classified compounds. All pairwise correlations among the set of 68 compounds were calculated. Correlation coefficients were sorted using Modulated Modularity Clustering (MMC) (9) as a visual aid for identifying compounds that are closely related in this sample. Biochemical groups were examined for compounds within the group that were highly correlated and compounds that were upstream in the relevant metabolic pathways were preferentially selected.
(§5) All analyses were performed in SAS v 9.2.
In conducting the multiple regression analysis on the tomato data set, the independent variables were the sugar content (glucose+fructose), and the flavor (indicated by the retronasal perception of volatiles), while the dependent variable was the perceived sweetness.

perceived sweetness [5] = assay: Tomato taste panel; revised partial least squares regression against sweetness independent of fructose or glucose (Table 4); conditions: for FRUCTOSE t RATIO: sweetness independent of fructose; for GLUCOSE t RATIO: sweetness independent of glucose
Description: as §3
Biochemical and psychophysical data sets from fruit and fruit taste panels are mathematically probed for relationships using standard least squares and partial least squares regression modeling techniques (SAS JMP Pro 12.0.1 and R version 3.2.4 statistical software packages). The exact regression type is dependent on the structure of the data, i.e. depending on the size and distributions of the overall datasets.

flavor intensity = assay: Tomato taste panel; association of compounds with tomato flavor intensity; conditions: univariate models
Description: as §3, §4, §5
Due to the large number of chemicals potentially influencing liking, a multivariate analysis of the data was performed. The attributes were initially partitioned into six groups based upon chemical properties and biosynthetic pathways: sugars, branched chain amino acids, fatty acids, carotenoids, phenolics, and acids. […] Groups of structurally related chemicals with known metabolic links were examined for compounds within each module that were highly colinear and compounds that were upstream in relevant metabolic pathways were preferentially selected.

sweetness [6] = assay: Orange juice; partial least squares regression of volatiles against sweetness independent of total sugar (Table 9)
Description: Volatile content of orange juice was assessed and analyzed similar to as described above for tomato, strawberry, and blueberry, described above. The process for obtaining volatile samples from orange juice was slightly different than for tomatoes, strawberries and blueberries. […] Briefly, instead of collecting volatiles at room temperature from a fruit mash in headspace of a closed area, the volatiles were elicited by heating the juice to collect volatiles.

| SMILES | t Ratio (Fructose) (sweetness [2]) | t Ratio (Glucose) (sweetness [2]) | t Ratio (Sucrose) (sweetness [2]) | t (perceived sweetness [4]) | FRUCTOSE t RATIO (perceived sweetness [5]) | GLUCOSE t RATIO (perceived sweetness [5]) | further results |
| --- | --- | --- | --- | --- | --- | --- | --- |
| CCCCCC(C)=O [2-Heptanone] |  |  |  |  |  |  | independent enhancement of perception of sweetness (sweetness [1]): independently enhancing perception of sweetness |
| C=CC1(C)CCC(C(C)(C)O)O1 (stereo not shown) [(Z)-linalool oxide (furanoid)] | 1.154 | 1.356 | 1.079 |  |  |  |  |
| C=C1CC[C@H]2O[C@]2(C)CC[C@@H]2[C@@H]1CC2(C)C [(—)-Caryophyllene oxide] | 1.845 | 1.608 | .982 |  |  |  |  |
| C=C(C)[C@H]1CC=C(C)CC1 [D-Limonene] | 1.176 | .954 | .609 |  |  |  |  |
| C=CC(C)(O)CCC=C(C)C (stereo not shown) [Linalool] |  |  |  |  |  |  | correlation with flavor intensity [3]: significant positive correlation with flavor intensity |
| CC1=C(C=O)C(C)(C)CCC1 [beta-cyclocitral] |  |  |  | 1.186 | 1.905 | 1.688 |  |
| N[C@@H](CCC(=O)O)C(=O)O [glutamatic acid] |  |  |  |  | −1.746 | −2.953 |  |
| CC(C)=CCC/C(C)=C\C=O [neral] |  |  |  |  |  |  | independent enhancement of perception of sweetness (sweetness [1]): independently enhancing perception of sweetness |
| C/C=C/C(=O)C1=C(C)C=CCC1(C)C [β-damascenone] |  |  |  | 1.012 | 0.138 | 0.678 | association with flavor intensity (flavor intensity): not associated with tomato flavor intensity |
| CC(=O)/C=C/C1=C(C)CCCC1(C)C [β-ionone] |  |  |  | 1.135 | 2.12 | 1.748 | Total Sugar t Ratio (sweetness [6]): 1.28 |
